Values quoted from earlier work in US20060003004A1 (Collegium Pharmaceutical, Inc., priority 2002, published 2006).
Like-named read-outs stand apart in the source and are kept apart here. Marks after values point to notes of the source that are not given here.

Assays:
[1] = 40-120 mg/day, 1032 patients
[2] = system: alpha adrenergic receptors
[3] = system: beta adrenoceptors in rat cortex; conditions: after chronic administration
[4] = intravenous, 10 patients
uptake of dopamine = uptake of dopamine (Homo sapiens, UniProt Q01959)
Sequence of uptake of dopamine (Q01959 whole entry): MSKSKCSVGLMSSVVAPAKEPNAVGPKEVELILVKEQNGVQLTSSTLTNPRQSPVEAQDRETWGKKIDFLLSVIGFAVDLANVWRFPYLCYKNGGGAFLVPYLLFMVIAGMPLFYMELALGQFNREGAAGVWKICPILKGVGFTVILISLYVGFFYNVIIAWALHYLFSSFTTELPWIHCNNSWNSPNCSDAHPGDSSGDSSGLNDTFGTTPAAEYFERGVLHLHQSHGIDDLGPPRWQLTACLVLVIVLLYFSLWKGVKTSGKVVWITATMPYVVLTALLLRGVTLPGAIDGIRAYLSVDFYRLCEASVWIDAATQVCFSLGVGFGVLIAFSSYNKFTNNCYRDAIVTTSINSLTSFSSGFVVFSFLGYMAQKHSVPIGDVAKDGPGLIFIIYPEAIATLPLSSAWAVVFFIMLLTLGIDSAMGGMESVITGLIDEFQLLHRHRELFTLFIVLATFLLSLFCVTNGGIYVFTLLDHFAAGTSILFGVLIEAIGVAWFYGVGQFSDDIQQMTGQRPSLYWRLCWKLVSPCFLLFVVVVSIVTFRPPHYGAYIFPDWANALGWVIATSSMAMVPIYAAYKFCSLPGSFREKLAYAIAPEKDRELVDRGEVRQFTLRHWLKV

[5] = not given; remark: listed apart in the source
[6] = for Participants who failed the dose escalation: escalation to 200 mg daily
[7] = system: beta adrenergic receptors
[8] = not given; remark: listed apart in the source
[9] = n=1,033
[10] = Phase 2 and Phase 3 depression studies
[11] = 100 mg/day twice daily, N = 1871
[12] = 200 mg/day twice daily, N = 865

## CNCC[C@H](Oc1cccc2ccccc12)c1cccs1 [duloxetine]
[1]
  Rate of adverse events nausea, dry mouth, fatigue, dizziness, constipation, somnolence, decreased appetite, and sweating: more than 5%

## CCN(CC)C(=O)C1(c2ccccc2)CC1CN (stereo not shown) [milnacipran, Milnacipran]
[2]
  Affinity for alpha adrenergic receptors: no affinity
[3]
  Effect on number of beta adrenoceptors in rat cortex: does not affect
100 mg/day twice daily
  Adverse events: headache: 9%
200 mg/day twice daily
  Adverse events: abdominal pain: 7%
  Adverse events: headache: 8%
  Adverse events: nausea and vomiting: 7%
Dopaminergic receptors
  Affinity for dopaminergic receptors: no affinity
[4]
  Patients reporting transient nausea: five of them reported transient nausea
Uptake of dopamine
  Effect on uptake of dopamine: does not affect
[5]; 50 mg/day twice daily, N = 426
  Frequency of Adverse Experiences: Abdominal Pain: 6.1%
  Frequency of Adverse Experiences: Agitation: 1.6%
  Frequency of Adverse Experiences: Anxiety: 2.8%
  Frequency of Adverse Experiences: Dry mouth: 9.4%
  Frequency of Adverse Experiences: Dyspepsia: 3.5%
  Frequency of Adverse Experiences: Dysuria: 1.4%
  Frequency of Adverse Experiences: Fatigue: 2.8%
  Frequency of Adverse Experiences: Headache: 14.6%
  Frequency of Adverse Experiences: Hot flushes: 1.6%
  Frequency of Adverse Experiences: Increased Sweating: 14.0%
  Frequency of Adverse Experiences: Insomnia: 9.2%
  Frequency of Adverse Experiences: Nausea: 12.7%
  Frequency of Adverse Experiences: Nervousness: 4.2%
  Frequency of Adverse Experiences: Palpitations: 2.3%
  Frequency of Adverse Experiences: Somnolence: 5.4%
  Frequency of Adverse Experiences: Tremor: 0.9%
  Frequency of Adverse Experiences: Vertigo: 1.6%
  Frequency of Adverse Experiences: Vomiting: 3.8%
[5]; [11]
  Frequency of Adverse Experiences: Agitation: 3.3%
  Frequency of Adverse Experiences: Anxiety: 4.1%
  Frequency of Adverse Experiences: Dry mouth: 7.9%
  Frequency of Adverse Experiences: Dyspepsia: 2.1%
  Frequency of Adverse Experiences: Dysuria: 2.1* %
  Frequency of Adverse Experiences: Fatigue: 2.5%
  Frequency of Adverse Experiences: Headache: 8.4%
  Frequency of Adverse Experiences: Hot flushes: 3.0%
  Frequency of Adverse Experiences: Increased Sweating: 4.3* %
  Frequency of Adverse Experiences: Insomnia: 6.1%
  Frequency of Adverse Experiences: Nausea: 11.2%
  Frequency of Adverse Experiences: Nervousness: 2.0%
  Frequency of Adverse Experiences: Palpitations: 2.7%
  Frequency of Adverse Experiences: Somnolence: 2.3%
  Frequency of Adverse Experiences: Tremor: 2.5%
  Frequency of Adverse Experiences: Vertigo: 5.0%
  Frequency of Adverse Experiences: Vomiting: 3.9%
[5]; [12]
  Frequency of Adverse Experiences: Abdominal Pain: 7.6%
  Frequency of Adverse Experiences: Agitation: 2.9%
  Frequency of Adverse Experiences: Anxiety: 5.1%
  Frequency of Adverse Experiences: Dry mouth: 9.0%
  Frequency of Adverse Experiences: Dyspepsia: 2.2%
  Frequency of Adverse Experiences: Dysuria: 3.7* %
  Frequency of Adverse Experiences: Fatigue: 4.4%
  Frequency of Adverse Experiences: Headache: 13.5%
  Frequency of Adverse Experiences: Hot flushes: 3.6%
  Frequency of Adverse Experiences: Increased Sweating: 11.6* %
  Frequency of Adverse Experiences: Insomnia: 11.3%
  Frequency of Adverse Experiences: Nausea: 19.4* %
  Frequency of Adverse Experiences: Nervousness: 2.8%
  Frequency of Adverse Experiences: Palpitations: 4.6%
  Frequency of Adverse Experiences: Somnolence: 3.5%
  Frequency of Adverse Experiences: Tremor: 6.7* %
  Frequency of Adverse Experiences: Vertigo: 4.5%
  Frequency of Adverse Experiences: Vomiting: 7.9* %
[6]; 1-7 scale (1 very much improved, 4 unchanged, 7 very much worse), FMS patients who reached endpoint, placebo 4.3, p=0.0001
  Global pain score, mean value: 2.3
[6]; BID-IR group
  Participants who failed the dose escalation: 6%
[6]; QD-IR group
  Participants who failed the dose escalation: 19%
Histaminergic receptors
  Affinity for histaminergic receptors: no affinity
Muscarinic receptors
  Affinity for muscarinic receptors: no affinity
[7]
  Affinity for beta adrenergic receptors: no affinity
[8]; humans
  Parent drug eliminated unchanged via the kidneys: 90%
  half-life: approximately 8 hours
[8]; oral doses
  Time within which oral doses are absorbed and distributed in the body: 1 to 2 h
[8]; ten metabolites formed in the liver
  Metabolites as share of the concentration of the parent drug: about 10%

## COc1ccc(C(CN(C)C)C2(O)CCCCC2)cc1 (stereo not shown) [venlafaxine]
[9]
  Adverse experience incidence: anorexia: 11%
  Adverse experience incidence: anxiety: 6%
  Adverse experience incidence: constipation: 15%
  Adverse experience incidence: dizziness: 19%
  Adverse experience incidence: dry mouth: 22%
  Adverse experience incidence: insomnia: 18%
  Adverse experience incidence: nausea: 37%
  Adverse experience incidence: nervousness: 13%
  Adverse experience incidence: somnolence: 23%
  Adverse experience incidence: tremor: 5%
  Adverse experience incidence: vomiting: 6%
[10]
  Patients who discontinued treatment that did so due to nausea: ~32%
